Source: publication PMC2099433, “The binding site for neohesperidin dihydrochalcone at the human sweet taste receptor” (BMC Structural Biology, 2007)
Positions count from the first letter of the chain named. Read-outs that look alike come from different tables or passages of the source. Where a SMILES comes first, the peptide text is derived from it.

Tests used:
[1] = target: T1, hTAS1R2 + hTAS1R3 G804V^7.42 (Homo sapiens, UniProt Q7RTX0+Q8TE23, G804V); test: Calcium response (FLIPR), hTAS1R3 mutant coexpressed with hTAS1R2; format: cell-based; conditions: for EC50: n.r. = no response to NHDC up to highest tested concentration (6 mM), but responses to other sweeteners
T1 construct: expressed in transfected cells; host or cells: HEK293T cells stably expressing G16Gust44
T1 sequence (Q7RTX0 21-852 G804V): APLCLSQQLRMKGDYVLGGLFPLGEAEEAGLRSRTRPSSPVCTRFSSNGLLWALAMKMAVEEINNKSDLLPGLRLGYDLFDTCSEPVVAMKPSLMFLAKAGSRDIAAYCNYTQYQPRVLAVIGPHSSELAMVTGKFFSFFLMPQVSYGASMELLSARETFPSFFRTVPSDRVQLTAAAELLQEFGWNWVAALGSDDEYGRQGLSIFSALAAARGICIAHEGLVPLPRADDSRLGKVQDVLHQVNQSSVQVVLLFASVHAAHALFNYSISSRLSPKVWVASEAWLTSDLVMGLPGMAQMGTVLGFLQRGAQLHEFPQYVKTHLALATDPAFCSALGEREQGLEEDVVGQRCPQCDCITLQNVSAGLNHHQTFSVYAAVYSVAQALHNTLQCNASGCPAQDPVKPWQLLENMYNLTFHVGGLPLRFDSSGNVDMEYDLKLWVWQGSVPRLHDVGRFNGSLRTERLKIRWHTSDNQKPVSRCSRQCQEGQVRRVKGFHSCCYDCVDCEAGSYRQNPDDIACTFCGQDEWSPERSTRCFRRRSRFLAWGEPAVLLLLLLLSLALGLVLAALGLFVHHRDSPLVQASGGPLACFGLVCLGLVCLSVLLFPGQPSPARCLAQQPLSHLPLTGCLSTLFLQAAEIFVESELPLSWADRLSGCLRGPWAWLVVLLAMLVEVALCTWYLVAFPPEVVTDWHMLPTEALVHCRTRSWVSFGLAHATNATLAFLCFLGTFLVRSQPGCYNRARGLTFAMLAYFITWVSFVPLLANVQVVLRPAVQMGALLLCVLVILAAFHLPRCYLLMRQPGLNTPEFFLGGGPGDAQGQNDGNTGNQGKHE
T1 sequence (Q8TE23 20-839): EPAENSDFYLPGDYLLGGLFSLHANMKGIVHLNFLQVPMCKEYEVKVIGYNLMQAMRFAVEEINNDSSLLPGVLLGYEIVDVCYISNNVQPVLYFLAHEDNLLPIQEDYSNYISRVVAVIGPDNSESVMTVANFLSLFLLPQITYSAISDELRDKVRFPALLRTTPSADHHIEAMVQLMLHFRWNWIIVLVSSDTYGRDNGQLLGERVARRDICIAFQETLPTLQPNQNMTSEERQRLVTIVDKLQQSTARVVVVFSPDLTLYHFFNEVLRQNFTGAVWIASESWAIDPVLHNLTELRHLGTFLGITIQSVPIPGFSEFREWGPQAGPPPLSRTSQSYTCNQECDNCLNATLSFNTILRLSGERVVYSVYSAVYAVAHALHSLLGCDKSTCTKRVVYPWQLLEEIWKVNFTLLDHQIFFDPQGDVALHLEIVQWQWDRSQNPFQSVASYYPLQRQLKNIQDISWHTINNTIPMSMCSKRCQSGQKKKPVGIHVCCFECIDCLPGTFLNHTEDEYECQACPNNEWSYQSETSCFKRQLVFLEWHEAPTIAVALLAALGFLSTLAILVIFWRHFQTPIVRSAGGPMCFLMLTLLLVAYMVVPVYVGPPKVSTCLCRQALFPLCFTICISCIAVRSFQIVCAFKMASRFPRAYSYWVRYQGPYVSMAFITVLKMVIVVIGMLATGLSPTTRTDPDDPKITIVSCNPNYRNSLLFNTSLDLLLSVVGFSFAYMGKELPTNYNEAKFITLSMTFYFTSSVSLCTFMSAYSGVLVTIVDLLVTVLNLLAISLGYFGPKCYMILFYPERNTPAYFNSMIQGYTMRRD
Outline: (§1)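 HEK293T/G16Gust44, transient transfection of HSV-tagged TAS1R2 + TAS1R3 mutants; Fluo4-AM loading 1 h at 24 h; sweet tastants in C1 solution; FLIPR Ca2+ read; ΔF/F, mock-subtracted; ≥3 independent expts in duplicate.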

[2] = target: T2, hTAS1R2 + hTAS1R3 R725M^5.38 (Homo sapiens, UniProt Q7RTX0+Q8TE23, R725M); test: as above; format: cell-based; conditions: variant R725M^5.38; for Emax: read-out: maximal signal (% of wt)
T2 construct: expressed in transfected cells; host or cells: HEK293T cells stably expressing G16Gust44
T2 sequence (Q7RTX0 21-852 R725M): T1 sequence (Q7RTX0 21-852 G804V) with R705M, V784G
T2 sequence (Q8TE23 20-839): T1 sequence (Q8TE23 20-839)
Outline: as §1

| EC50 ([1]; variant G804V^7.42) | EC50 [2] | Emax [2] | EC50 ([1]; variant G804V^7.42, read-out: EC50) | Emax ([1]; variant G804V^7.42, read-out: maximal signal (% of wt)) | Structure (SMILES) | receptor response ([1]; mutant G804V^7.42, any tested concentration) |
| --- | --- | --- | --- | --- | --- | --- |
| n.r. | 1300 ± 400 µM | 64 ± 14% |  |  | COc1ccc(CCC(=O)c2c(O)cc(O[C@@H]3O[C@H](CO)[C@@H](O)[C@H](O)[C@H]3O[C@@H]3O[C@@H](C)[C@H](O)[C@@H](O)[C@H]3O)cc2O)cc1O [NHDC, neohesperidin dihydrochalcone] | did not respond to NHDC at any tested concentration |
|  | 1500 ± 700 µM | 56 ± 1% | 1300 ± 300 µM | 21 ± 2% | COC(=O)[C@H](Cc1ccccc1)NC(=O)[C@@H](N)CC(=O)O [aspartame] (HELM PEPTIDE1{D.F.[CO[*:1]]}$$$$V2.0) |  |
